Test results published in patent publication US10941115B2, “Kinase inhibitors” (Oxular Acquisitions Limited, priority 2014, dated 2021).
Where a name gives a salt, the structure may show the parent alone. Read-outs that look alike come from different tables or passages of the source. Values belong to the compound of their own block, whether it stands above or below them.

Experiments:
[1] = Stability of pharmaceutical formulations (1 mg/mL solutions); assay type: physicochemical; conditions: for Purity (%) at week n = 4: week 4; for Purity (%) at week n = 1: week 1
Experimental: The samples were sonicated to achieve clear solutions having the following properties: Osmolality (mOsm/kg): 310 (Na), 314 (HCl); pH: 7.00 (Na), 7.05 (HCl). 0.5 mL of the stock solutions were diluted to 1 mL with 20% DMSO in water & injected for purity analysis by HPLC. The remaining stock solutions were then split into aliquots of 0.5 mL in HPLC vials, and stored at various conditions in duplicate. Samples were stored at 5 and 25° C., before being analysed by HPLC at 1, 2 and 4 weeks. Separate samples were stored at 40° C. and analysed at 4 weeks.

[2] = 0.1 and 1.0 mg/mL, four daily ocular instillations, rabbits
[3] = system: Escherichia coli WP2 uvrA; assay: Bacterial reverse mutation screen (plate incorporation, ±S-9); conditions: for mutagenic effects (revertant numbers): presence and absence of S-9 mix
[4] = system: Salmonella typhimurium strains TA1535, TA1537, TA98 and TA100; assay: as above; conditions: for mutagenic effects (revertant numbers): TA1535, TA1537, TA98, TA100, presence and absence of S-9 mix; for toxicity to the bacteria (mean colony count): at the highest doses (500-5000 μg/plate), some strains
LPS-stimulated rats = assay: Endotoxin-induced uveitis in rats (assay vi); assay type: in vivo, Lewis rats; conditions: rats treated with intravitreal LPS, result in words
Experimental: Male, Lewis rats (6-8 weeks old, Charles River UK Limited) are housed in cages of 3 at 19-21° C. with a 12 h light/dark cycle (07:00/19:00) and fed a standard diet of rodent chow and water ad libitum. Non-fasted rats are weighed, individually identified on the tail with a permanent marker, and receive a single intravitreal administration into the right vitreous humor (5 μL dose volume) of 100 ng/animal of LPS (Escherichia coli 0111:B4 prepared in PBS, Sigma Aldrich, UK) using a 32-gauge needle. Untreated rats are injected with PBS. Test compound or vehicle (4% polyoxyl 40 stearate, 4% mannitol in PBS (pH 7.4)) are administered by the topical route onto the right eye (10 μL) of animals 1 hour prior to LPS, at the time of LPS administration, and 1, 2 and 4 hours post LPS administration. Before administration, the solution to be administered is sonicated to ensure a clear solution. 6 hours after LPS dosing, animals are euthanized by overdose with pentobarbitone (via cardiac puncture). Immediately after euthanasia, 10 μL of aqueous humor is collected from the right eye of the rats by puncture of the anterior chamber using a 32 gauge needle under a surgical microscope. The aqueous humor is diluted in 20 μL of PBS and total cell counts are measured immediately using a Countess automated cell counter (Invitrogen). […]

non-mutant kinases = assay type: binding; conditions: for KinomeScan Selectivity Score S(1): fraction of non-mutant kinases with % Ctrl <1; for KinomeScan Selectivity Score S(10): fraction of non-mutant kinases with % Ctrl <10
Source text: These assays may be conducted by DiscoverX (formerly Ambit; San Diego, Calif.).

[5] = Hydrolytic stability study in DMSO/water (3:1) at 60 °C; assay type: physicochemical; conditions: DMSO/water 3:1, 1 mg/mL, result in words
Experimental: Flow rate 2.5 mL/min. Column Oven Temperature 40° C. […] The peak area for the test compound was recorded following manual integration of the corresponding UV trace. • The test solution was heated to 60° C., with stirring, and 50 μL aliquots removed for HPLC analysis at 5 and 24 h timepoints.

SMILES: COc1cc(Nc2cc(Oc3ccc(NC(=O)Nc4cc(C(C)(C)C)cc(NS(C)(=O)=O)c4OC)c4ccccc34)ccn2)ccc1C(=O)O [Example 1, 4-((4-((4-(3-(5-(tert-Butyl)-2-methoxy-3-(methylsulfonamido)phenyl)ureido)naphthalen-1-yl)oxy)pyridin-2-yl)amino)-2-methoxybenzoic acid]
- stability in solution ([1]; 1 mg/mL Na and HCl salts in pH 7.2 phosphate buffer, 4.5% mannitol, 3% polyoxyl 40 stearate): stable in solution at 5 °C
- local tolerability of the formulations ([2]; Phase 1: one treatment day): acceptable after a single dosing day
- ocular reactions compared with vehicle controls ([2]; Phase 1: one treatment day): no differences in the frequency, severity and incidence between the Example 1-treated animals and the vehicle controls
- local tolerability of the formulations ([2]; Phase 2: three consecutive treatment days): acceptable without any aggravation for the 3 treatment days
- mutagenic effects (revertant numbers) [3]: absence of any mutagenic effects
- mutagenic effects (revertant numbers) [4]: absence of any mutagenic effects
- toxicity to the bacteria (mean colony count) [4]: reduction in the mean colony count
- cellular infiltration (cell counts) in the eyes (LPS-stimulated rats): significantly and dose-dependently reduced cellular infiltration
- cytokine IL-1β levels in anterior and posterior segments of the eyes (LPS-stimulated rats): significantly and dose-dependently reduced

SMILES: COc1cc(Nc2cc(Oc3ccc(NC(=O)Nc4cc(C(C)(C)C)cc(NS(C)(=O)=O)c4OC)c4ccccc34)ccn2)ccc1P(C)(=O)O [Example 44, (4-((4-((4-(3-(5-(tert-Butyl)-2-methoxy-3-(methylsulfonamido)phenyl)ureido)naphthalen-1-yl)oxy)pyridin-2-yl)amino)-2-methoxyphenyl)(methyl)phosphinic acid]
- toxicity to the bacteria (mean colony count) ([3]; 5000 μg/plate, absence of S-9 mix): reduction in the mean colony count
- mutagenic effects (revertant numbers) [3]: absence of any mutagenic effects
- mutagenic effects (revertant numbers) [4]: absence of any mutagenic effects
- toxicity to the bacteria (mean colony count) [4]: reduction in the mean colony count

SMILES: COc1cc(Nc2cc(Oc3ccc(NC(=O)Nc4cc(C(C)(C)C)cc(NS(C)(=O)=O)c4OC)c4ccccc34)ccn2)cc(OC)c1C(=O)NCCOCCOCCO [Example 36, 4-((4-((4-(3-(5-(tert-butyl)-2-methoxy-3-(methylsulfonamido)phenyl)ureido)naphthalen-1-yl)oxy)pyridin-2-yl)amino)-N-(2-(2-(2-hydroxyethoxy)ethoxy)ethyl)-2,6-dimethoxybenzamide]
- KinomeScan Selectivity Score S(1) (non-mutant kinases; 50 nM): 0.002
- KinomeScan Selectivity Score S(10) (non-mutant kinases; 50 nM): 0.050
- KinomeScan Selectivity Score S(1) (non-mutant kinases; 500 nM): 0.079

SMILES: COc1cc(Nc2cc(Oc3ccc(NC(=O)Nc4cc(C(C)(C)C)cc(NS(C)(=O)=O)c4OC)c4ccccc34)ccn2)ccc1C(=O)O [Example 1, sodium salt]
- Purity (%) at week n = 4 ([1]; 1 mg/mL solution, Sample 1, 40° C.): 76.0%

SMILES: COc1cc(Nc2cc(Oc3ccc(NC(=O)Nc4cc(C(C)(C)C)cc(NS(C)(=O)=O)c4OC)c4ccccc34)ccn2)ccc1C(=O)O.Cl [Example 1, hydrochloride salt]
- Purity (%) at week n = 1 ([1]; 1 mg/mL solution, Sample 1, 25° C.): 98.0%
- Purity (%) at week n = 2 ([1]; 1 mg/mL solution, Sample 2, 5° C., week 2): 98.0%
- Purity (%) at week n = 4 ([1]; 1 mg/mL solution, Sample 2, 5° C.): 98.0%
- Purity (%) at week n = 1 ([1]; 1 mg/mL solution, Sample 2, 25° C.): 98.0%

SMILES: COc1cc(Nc2cc(Oc3ccc(NC(=O)Nc4cc(C(C)(C)C)cc(NS(C)(=O)=O)c4OC)c4ccccc34)ccn2)cc(OC)c1C(=O)NCCOCCOCCOP(=O)(O)O [Example 47, 2-(2-(2-(4-((4-((4-(3-(5-(tert-butyl)-2-methoxy-3-(methylsulfonamido)phenyl)ureido)-naphthalen-1-yl)oxy)pyridin-2-yl)amino)-2,6-dimethoxybenzamido)ethoxy)ethoxy)ethyl dihydrogen phosphate]
- KinomeScan Selectivity Score S(10) (non-mutant kinases; 50 nM): 0.042
- KinomeScan Selectivity Score S(1) (non-mutant kinases; 500 nM): 0.074

- decomposition under the conditions of the hydrolytic stability study [5]: underwent substantial decomposition
SMILES: C#Cc1cc(Nc2nccc(Oc3ccc(NC(=O)Nc4cc(C(C)C)nn4-c4ccc(C)cc4)c4ccccc34)n2)cc(C(=O)NCCN2CCOCC2)c1 [Reference Compound B, 3-ethynyl-5-((4-((4-(3-(3-isopropyl-1-(p-tolyl)-1H-pyrazol-5-yl)ureido)naphthalen-1-yl)oxy)pyrimidin-2-yl)amino)-N-(2-morpholinoethyl)benzamide]
